Measured values reported in patent US4558059A, “2-Substituted-phenylthiazole derivatives” (priority 1980, dated 1985).
Read-outs that look alike come from different tables or passages of the source.

Experiments:
[1] = test system: Peptic ulcer due to pyloric ligation; assay: Effect on peptic ulcer due to pyloric ligation; type: in vivo, male rats; conditions: intraperitoneal, rats; for Ulcer coefficient: 100 mg/kg, just after ligation, 15 hours; for inhibition in vivo at 100 mg/kg: Rattus norvegicus, ip, 15 h, control ulcer coefficient 42.0 mm^2, read-out: Rate of suppression of ulcer
Protocol: Just after subjecting to ligation, each of the present compound suspended in an aqueous physiological saline solution was intraperitoneally administered to each rat, the control being injected with an aqueous physiological saline solution. Then, after 15 hours of fasting without taking water, the rats were sacrificed with ether and their stomachs were removed to examine under a microscope for anatomy. The length and width of the thus-formed ulcer in the stomach were determined and expressed by the product (mm^2), and the total sum of the products was represented as the ulcer coefficient.

[2] = test system: Peptic ulcer due to acetic acid; assay: Effect on peptic ulcer due to acetic acid (duodenal); type: in vivo, male rats; conditions: for Ulcer coefficient: orally 3 times a day for 10 days from third day; for inhibition in vivo at 100 mg/kg: Rattus norvegicus, po, 240 h, read-out: Rate of suppression of ulcer
Protocol: To the control group, only the aqueous physiological saline solution was administered. After the administration was over, the rats were sacrificed with ether, and their duodenum was removed to observe under a microscope for anatomy. The length and width of the thus-formed ulcer were measured and their product (expressed with mm^2) was recorded as the ulcer coefficient.

[3] = Acute toxicity test, oral; conditions: mouse, in vivo, p.o., female ICR-mice, mortality for a week, Litchfield-Wilcoxon
Protocol: Ten animals per group were kept in a transparent polycage at room temperature of 23°±1° C., and RH of 60 to 70%.
After minutely pulverizing each one of the present compounds, the pulverized compound was suspended in an aqueous 5% sodium carboxymethylcellulose solution containing 20% of Tween-80. The aqueous suspension was forcibly orally administered by a metal stomach tube, the dose rate having been adjusted by changing the concentration of the present compound in the aqueous suspension.

[4] = test system: peptic ulcer; conditions: cited from earlier work
[5] = 100 mg/kg, orally 3 times a day for 10 days, rats, control ulcer coefficient 9.0 mm^2

SMILES	Ulcer coefficient [1] [mm^2]	inhibition in vivo at 100 mg/kg [1] [%]	Ulcer coefficient ([2]; 100 mg/kg, rats) [mm^2]	inhibition in vivo at 100 mg/kg [2, 5] [%]	LD50 at 168 h [3] [mg/kg]	inhibition in vivo at 100 mg/kg [2] [%]	Effectiveness / curative effect ([2]; in words, rats)	Accelerating effect on the ulcer-curing ([4]; background statement)	Side effects ([4]; in vivo)
CNC(=O)c1sc(-c2ccc(OC)c(OC)c2)nc1C [Compound 4, 2-(3,4-dimethoxyphenyl)-4-methylthiazole-5-methylcarboxamide]	11.0	73.8	1.8	80					
COc1ccc(-c2nc(C)c(C(N)=O)s2)cc1 [Compound 9, 2-(4-methoxyphenyl)-4-methylthiazole-5-carboxyamide]	0.9	97.9	2.0	77.8					
CCCNC(=O)c1sc(-c2ccc(OC)cc2)nc1C [Compound 11, 2-(4-methoxyphenyl)-4-methylthiazole-5-n-propylcarboxamide]	8.5	79.8	2.5	72.2					
CCCNC(=O)c1sc(-c2cc(OC)c(OC)c(OC)c2)nc1C [Compound 2, 2-(3,4,5-trimethoxyphenyl)-4-methylthiazole-5-n-propylcarboxamide]	6.3	85	2.7	70	5600				
CCCNC(=O)c1sc(-c2ccccc2OC)nc1C [Compound 8, 2-(2-methoxyphenyl)-4-methylthiazole-5-n-propylcarboxamide]	9.0	78.6	3.2	64.4					
CNC(=O)c1sc(-c2ccccc2OC)nc1C [Compound 7, 2-(2-methoxyphenyl)-4-methylthiazole-5-methylcarboxamide]	8.6	79.5	1.7	81.1					
COc1ccc(-c2nc(C)c(C(N)=O)s2)cc1OC [Compound 3, 2-(3,4-dimethoxyphenyl)-4-methylthiazole-5-carboxamide]	0.8	98.1	1.3			85.6			
CC(C)=CCCC(C)=CCCC(C)=CCCC(=O)OCC=C(C)CCC=C(C)C [Gefarnate, 3,7dimethyl-2,6-octadienyl 5,9,13trimethyl-4,8,12-tetradecatrienoate, reference compound]	36.9	12.1	7.2	20			only a slight effectiveness is recognized		
CC1(C)[C@@H](OC(=O)CCC(=O)O)CC[C@]2(C)[C@H]3C(=O)C=C4[C@@H]5C[C@@](C)(C(=O)O)CC[C@]5(C)CC[C@@]4(C)[C@]3(C)CC[C@@H]12 [carbenoxolone]								excellent accelerating effect on the ulcer-curing	aldosterone-like side effects to cause hypertension and weakening of muscular function
COc1ccccc1-c1nc(C)c(C(N)=O)s1 [Compound 6, 2-(2-methoxyphenyl)-4-methylthiazole-5-carboxamide]	1.2	97.1	2.1	76.7					
CNC(=O)c1sc(-c2cc(OC)c(OC)c(OC)c2)nc1C [Compound 1, 2-(3,4,5-trimethoxyphenyl)-4-methylthiazole-5-methylcarboxamide]	14.7	65	3.1	65.6					
CCCNC(=O)c1sc(-c2ccc(OC)c(OC)c2)nc1C [Compound 5, 2-(3,4-dimethoxyphenyl)-4-methylthiazole-5-n-propylcarboxamide]	8.4	80	2.9	67.8					
CNC(=O)c1sc(-c2ccc(OC)cc2)nc1C [Compound 10, 2-(4-methoxyphenyl)-4-methylthiazole-5-methylcarboxamide]	6.4	84.8	3.1	65.6					
